From patent US20230286923A1 (INIPHARM, INC., priority 2020, published 2023)

Assays:
[1] = biological target: T1, HSD17B13 enzyme (Homo sapiens (Human), UniProt Q7Z5P4); assay: NADH detection assay (fluorescence based LTB3 assay) for HSD17B13 activity; format: biochemical; conditions: substrate 25 µM LTB3, 3 mM NAD+, 125 nM enzyme
Experimental: The fluorescence based Leukotriene B3 (LTB3) assay monitors the fluorescence of NADH, which is generated from NAD+ during the dehydrogenation of the substrate LTB3. The reactions were performed in a 384-well plates (Greiner; #655076) in a 20 µl reaction volume containing the following reagents (final concentrations): 25 µM LTB3 (Cayman; #20109); 3 mM NAD^+ (Sigma; #N0623); 125 nM HSD17B13 enzyme (in-house; E. coli expressed His-tagged, purified, soluble protein); 1 M potassium phosphate buffer, pH 7.4; and 1% DMSO. Reactions were initiated by co-addition of NAD+ and enzyme, and monitored for 1 hour at 26.5° C. Generation of NADH was measured as the fluorescence signal (Excitation at 340 nm and Emission at 445 nm) at 1 hour minus the baseline fluorescence at t=0. Fluorescence signals in the absence of LTB3 (negative control values), were subtracted from all values so that the results reflected substrate-dependent production of NADH. NADH standards were included to allow the conversion of relative fluorescence units into rates of enzyme activity. Enzyme activity in the presence of test compounds was expressed as a percentage of the uninhibited enzyme activity, and plotted versus inhibitor concentration. Non-linear regression was performed using a four-parameter logistic model and Microsoft Excel Solver software Ten concentrations of inhibitor were tested in duplicate (in the range of 30 µM - 2.5 nM), and two independent concentration response assays were performed.

[2] = biological target: T1, HSD17B13 enzyme; assay: Estrone detection assay (LC/MS, conversion of estradiol to estrone) for HSD17B13 activity; format: biochemical; conditions: substrate 4 µM estradiol, 6 mM NAD+, 30 nM enzyme
Experimental: The liquid chromatography/mass spectrometry (LC/MS) estrone detection assay monitors the conversion of estradiol to estrone by HSD17B13. This assay was undertaken in a 96wp format (Eppendorf deep well Plate 96/500) in an 80 µl reaction volume containing: 4 µM of Estradiol (E2; Cayman; #10006315), 6 mM NAD^+ (Sigma; #N0623) and 30 nM HSD17B13 enzyme (in-house; E. coli expressed His-tagged, purified, soluble protein) in a reaction containing 1 M potassium phosphate buffer pH 7.4, with 0.5% vehicle (DMSO). Reactions were incubated for 2 hours at 26.5° C., and estradiol (E2) conversion to estrone (E1) was quantitated by LC-MS/MS based analyte detection for both E2 and E1 using LCMS grade reagents.
Reactions were terminated by the addition of two volumes of acetonitrile (MeCN; LCMS grade; CAS# 75/05/8) containing deuterated (D4)-E1 used as internal standard (Clear Synth; #CS-T-54273; 500 ng/mL final concentration). Samples were applied to pre-prepared Bond Elut-C18 extraction cartridges (3 mL; Agilent; #12102028), washed and eluted in MeCN. Eluates were dried under nitrogen and re-suspended in 60% methanol (LCMS grade methanol; CAS# 67/56/1) before submission for analysis. Aqueous linearity for E2 and E1 were included for quantification.
Analysis of samples was undertaken on a XBridge BEH C18 column (Waters; #186003033) using 0.1% Diethyl Amine in MeCN (mobile phase A; DEA CAS# 109-89-7) and 0.1% Diethyl Amine in milli-Q water (mobile phase B) in a 3 min gradient allowing 25%B. Analytes were detected in negative mode using MRM analysis, with E2 having a RT of 1.85 min and E1 having a RT of 2 min. Activity of the enzyme, in the absence of NAD^+, was used to evaluate specificity of conversion. Enzyme activity in the presence of test samples was expressed as a percentage of the uninhibited enzyme activity, and plotted versus inhibitor concentration. Non-linear regression was performed using a four-parameter logistic model and GraphPad Prism software (GraphPad Software, La Jolla, CA). All assessments were undertaken in duplicate evaluations and pooled during extraction process and subsequently injected as duplicates for LC-MS/MS analysis.

T1 sequence (Q7Z5P4 20-300): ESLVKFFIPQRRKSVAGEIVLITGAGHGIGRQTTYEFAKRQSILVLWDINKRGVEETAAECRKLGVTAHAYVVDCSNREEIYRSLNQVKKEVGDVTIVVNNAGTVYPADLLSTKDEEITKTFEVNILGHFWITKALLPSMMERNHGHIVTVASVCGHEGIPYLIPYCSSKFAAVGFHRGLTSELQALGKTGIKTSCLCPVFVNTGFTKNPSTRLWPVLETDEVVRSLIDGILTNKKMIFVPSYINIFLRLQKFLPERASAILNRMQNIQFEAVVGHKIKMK

SMILES	IC50 [1] [µM]	IC50 [2] [µM]
Cn1c(-c2cccnc2)nc2cccc(NC(=O)c3ccc(-c4nnn[nH]4)c(F)c3)c2c1=O [Example 17, 3-fluoro-N-(3-methyl-4-oxo-2-(pyridin-3-yl)-3,4-dihydroquinazolin-5-yl)-4-(1H-tetrazol-5-yl)benzamide]	> 10	> 10
COc1ccccc1Cn1cnc2cccc(NC(=O)c3ccc(O)c(Cl)c3)c2c1=O [Example 6, 3-chloro-4-hydroxy-N-(3-(2-methoxybenzyl)-4-oxo-3,4-dihydroquinazolin-5-yl)benzamide]	≤ 1	≤ 0.1
COc1ccccc1CCn1cnc2cccc(NC(=O)c3ccc(O)c(Cl)c3)c2c1=O [Example 1, 3-chloro-4-hydroxy-N-(3-(2-methoxyphenethyl)-4-oxo-3,4-dihydroquinazolin-5-yl)benzamide]	≤ 1	≤ 0.1
O=C(Nc1cccc2ncn(Cc3ccncc3)c(=O)c12)c1ccc(O)c(F)c1 [Example 20, 3-fluoro-4-hydroxy-N-(4-oxo-3-(pyridin-4-ylmethyl)-3,4-dihydroquinazolin-5-yl)benzamide]	> 10	0.1 to 1
COc1ccccc1CCn1cnc2cccc(NC(=O)c3ccc(O)c(C(C)(C)C)c3)c2c1=O [Example 31, 3-(tert-butyl)-4-hydroxy-N-(3-(2-methoxyphenethyl)-4-oxo-3,4-dihydroquinazolin-5-yl)benzamide]	> 10	> 10
O=C(Nc1cccc2ncn(-c3cccnc3)c(=O)c12)c1ccc(O)c(Cl)c1 [Example 9, 3-chloro-4-hydroxy-N-(4-oxo-3-(pyridin-3-yl)-3,4-dihydroquinazolin-5-yl)benzamide]	> 10	0.1 to 1
COc1ccccc1CCn1cnc2sc(C)c(NC(=O)c3ccc(O)c(Cl)c3)c2c1=O [Example 34, 3-chloro-4-hydroxy-N-(3-(2-methoxyphenethyl)-6-methyl-4-oxo-3,4-dihydrothieno[2,3-d]pyrimidin-5-yl)benzamide]	≤ 1	≤ 0.1
COc1ccccc1CCn1cnc2cccc(NC(=O)c3ccc(-c4cn[nH]c4)c(F)c3)c2c1=O [Example 21, 3-fluoro-N-(3-(2-methoxyphenethyl)-4-oxo-3,4-dihydroquinazolin-5-yl)-4-(1H-pyrazol-4-yl)benzamide]	> 10	> 10
O=C(Nc1cccc2ncn(Cc3ccccc3)c(=O)c12)c1ccc(O)c(Cl)c1 [Example 3, N-(3-benzyl-4-oxo-3,4-dihydroquinazolin-5-yl)-3-chloro-4-hydroxybenzamide]	≤ 1	≤ 0.1
O=C(Nc1cccc2ncn(-c3ccccc3)c(=O)c12)c1ccc(O)c(Cl)c1 [Example 8, 3-chloro-4-hydroxy-N-(4-oxo-3-phenyl-3,4-dihydroquinazolin-5-yl)benzamide]	> 10	0.1 to 1
CC(C)(C)CCn1cnc2cccc(NC(=O)c3ccc(S(=O)(=O)NC(=O)c4cccnc4)c(Cl)c3)c2c1=O [Example 16, N-((2-chloro-4-((3-(3,3-dimethylbutyl)-4-oxo-3,4-dihydroquinazolin-5-yl)carbamoyl)phenyl)sulfonyl)nicotinamide]	5 to 10	1 to 10
COc1ccccc1CCn1cnc2cccc(NC(=O)c3ccc(-c4cnn[nH]4)c(F)c3)c2c1=O [Example 26, 3-fluoro-N-(3-(2-methoxyphenethyl)-4-oxo-3,4-dihydroquinazolin-5-yl)-4-(1H-1,2,3-triazol-5-yl)benzamide]	> 10	1 to 10
CC(C)(C)CCn1cnc2cccc(NC(=O)c3ccc(S(=O)(=O)NC(=O)c4ccccc4)c(Cl)c3)c2c1=O [Example 18, 4-(N-benzoylsulfamoyl)-3-chloro-N-(3-(3,3-dimethylbutyl)-4-oxo-3,4-dihydroquinazolin-5-yl)benzamide]	> 10	1 to 10
O=C(Nc1cccc2ncn(Cc3cccnc3)c(=O)c12)c1ccc(O)c(Cl)c1 [Example 30, 3-chloro-4-hydroxy-N-(4-oxo-3-(pyridin-3-ylmethyl)-3,4-dihydroquinazolin-5-yl)benzamide]	≤ 1	≤ 0.1
COc1ccccc1CCn1cnc2cccc(NC(=O)c3ccc(OCC(=O)O)c(F)c3)c2c1=O [Example 4, 2-(2-fluoro-4-((3-(2-methoxyphenethyl)-4-oxo-3,4-dihydroquinazolin-5-yl)carbamoyl)phenoxy)acetic acid]	> 10	1 to 10
COc1ccccc1CCn1cnc2cccc(NC(=O)c3cc(Cl)c4[nH]c(=O)[nH]c4c3)c2c1=O [Example 19, 7-chloro-N-(3-(2-methoxyphenethyl)-4-oxo-3,4-dihydroquinazolin-5-yl)-2-oxo-2,3-dihydro-1H-benzo[d]imidazole-5-carboxamide]	1 to 5	> 10
COc1ccccc1CCn1cnc2cccc(NC(=O)c3cc(Cl)c(O)c(C(C)C)c3)c2c1=O [Example 24, 3-chloro-4-hydroxy-5-isopropyl-N-(3-(2-methoxyphenethyl)-4-oxo-3,4-dihydroquinazolin-5-yl)benzamide]	> 10	> 10
COc1ccccc1CCn1cnc2cccc(NC(=O)c3ccc(-c4nnn[nH]4)c(Cl)c3)c2c1=O [Example 27, 3-chloro-N-(3-(2-methoxyphenethyl)-4-oxo-3,4-dihydroquinazolin-5-yl)-4-(1H-tetrazol-5-yl)benzamide]	1 to 5	1 to 10
COc1ccccc1CCn1cnc2cccc(NC(=O)c3cc(Cl)c(O)c(Cl)c3)c2c1=O [Example 33, 3,5-dichloro-4-hydroxy-N-(3-(2-methoxyphenethyl)-4-oxo-3,4-dihydroquinazolin-5-yl)benzamide]	1 to 5	0.1 to 1
COc1ccccc1CCn1cnc2cccc(NC(=O)c3ccc(C(=O)O)c(Cl)c3)c2c1=O [Example 5, 2-chloro-4-((3-(2-methoxyphenethyl)-4-oxo-3,4-dihydroquinazolin-5-yl)carbamoyl)benzoic acid]	> 10	1 to 10
COc1ccccc1CCn1cnc2cccc(NC(=O)c3ccc(O)c(F)c3)c2c1=O [Example 2, 3-fluoro-4-hydroxy-N-(3-(2-methoxyphenethyl)-4-oxo-3,4-dihydroquinazolin-5-yl)benzamide]	≤ 1	≤ 0.1
N#Cc1cc(C(=O)Nc2cccc3ncn(Cc4cc[nH]n4)c(=O)c23)cc(F)c1O [Example 61, N-(3-((1H-pyrazol-3-yl)methyl)-4-oxo-3,4-dihydroquinazolin-5-yl)-3-cyano-5-fluoro-4-hydroxybenzamide]	–	0.1 to 1
O=C(Nc1cccc2ncn(Cc3ccccc3OC(F)(F)F)c(=O)c12)c1cc(Cl)c(O)c(C(F)(F)F)n1 [Example 50, 4-chloro-5-hydroxy-N-(4-oxo-3-(2-(trifluoromethoxy)benzyl)-3,4-dihydroquinazolin-5-yl)-6-(trifluoromethyl)picolinamide]	–	0.1 to 1
NC(=O)c1cc(C(=O)Nc2cccc3ncn(Cc4cccc(C(F)(F)F)c4)c(=O)c23)cc(F)c1O [Example 54, 5-fluoro-4-hydroxy-N1-(4-oxo-3-(3-(trifluoromethyl)benzyl)-3,4-dihydroquinazolin-5-yl)isophthalamide]	–	1 to 10
N#Cc1cc(C(=O)Nc2cccc3ncn(Cc4ccccc4F)c(=O)c23)cc(Cl)c1O [Example 37, 3-chloro-5-cyano-N-(3-(2-fluorobenzyl)-4-oxo-3,4-dihydroquinazolin-5-yl)-4-hydroxybenzamide]	–	0.1 to 1
